ChEMBL document CHEMBL5052852, “Substituted hydantoinamides as adamts7 antagonists” (2021)

What was measured:
[1] = Inhibition of recombinant rat/human ADAMTS7 hybrid using HiLyteFluor-488 DELSSMVLELRGLRT-K(QXL520)-E-NH2 as substrate incubated for 120 mins and measured by FRET assay
[2] = Inhibition of recombinant rat/human ADAMTS12 hybrid using HiLyteFluor-488 DELSSMVLELRGLRT-K(QXL520)-E-NH2 as substrate incubated for 120 mins and measured by FRET assay

SMILES | IC50 [1] [nM] | IC50 [2] [µM]
N#Cc1ccc(-n2ncc(C(=O)NC[C@@]3(C4CC4)NC(=O)NC3=O)n2)cc1 | 40 | 17
O=C1NC(=O)[C@](CNC(=O)c2cnn(-c3ccc(C(F)(F)F)c(F)c3)n2)(C2CC2)N1 | 120 | 4.6
O=C1NC(=O)[C@](CNC(=O)c2coc(-c3ccc(F)cc3)n2)(C2CC2)N1 | 55 | 1.7
O=C1NC(=O)[C@](CNC(=O)c2cnn(-c3ccc(Cl)cc3F)n2)(C2CC2)N1 | 60 | 1
O=C1NC(=O)[C@](CNC(=O)c2cnn(-c3ccccc3F)n2)(C2CC2)N1 | 180 | 7.6
O=C1NC(=O)[C@](CNC(=O)c2cnn(-c3cc(F)ccc3F)n2)(C2CC2)N1 | 110 | 5.5
O=C1NC(=O)[C@](CNC(=O)c2cnn(-c3ccccn3)n2)(C2CC2)N1 | 98 | 7.65
O=C1NC(=O)C(CNC(=O)c2cnn(-c3ccc(F)c(F)c3)n2)(C2CCC2)N1 (centres undefined) | 6 | 0.89
O=C1NC(=O)[C@](CNC(=O)c2cnn(-c3ncc(F)cc3F)n2)(C2CC2)N1 | 190 | 6.2
COc1ccc(-n2ncc(C(=O)NC[C@@]3(C4CC4)NC(=O)NC3=O)n2)cc1 | 100 | 6
O=C1NC(=O)[C@](CNC(=O)c2cnn(-c3nc4ccccc4s3)n2)(C2CC2)N1 | 190 | 11
Cc1cccc(-n2ncc(C(=O)NC[C@@]3(C4CC4)NC(=O)NC3=O)n2)c1 | 170 | 2.2
O=C1NC(=O)[C@](CNC(=O)c2cnn(-c3ccc(F)cc3Cl)n2)(C2CC2)N1 | 320 | 17
O=C1NC(=O)[C@](CNC(=O)c2cnn(-c3ccccc3)c2)(C2CC2)N1 | 129 | 1.8
O=C1NC(=O)[C@](CNC(=O)c2nnc(-c3ccc(F)cc3)o2)(C2CC2)N1 | 350 | 12
O=C1NC(=O)C(CNC(=O)c2cnn(-c3ccc(F)cc3)n2)(C2CCCCC2)N1 (centres undefined) | 14 | 4.1
O=C1NC(=O)C(CNC(=O)c2cnn(-c3ccc(F)cc3)n2)(c2cscn2)N1 (centres undefined) | 12 | 2.5
Cn1cc(-c2cc(C(=O)NC[C@@]3(C4CC4)NC(=O)NC3=O)on2)cn1 | 52 | 4.69
O=C1NC(=O)[C@](CNC(=O)c2cnn(-c3ccc(F)cc3)n2)(C2CC2)N1 | 26 | 1.42
CC(CO)C1(CNC(=O)c2cnn(-c3ccccc3)n2)NC(=O)NC1=O (centres undefined) | 190 | 17
O=C1NC(=O)[C@](CNC(=O)c2cc(-c3cnn(CC4CC4)c3)no2)(C2CC2)N1 | 550 | 50
O=C1NC(=O)[C@](CNC(=O)c2cnn(-c3ccc(Cl)c(Cl)c3)n2)(C2CC2)N1 | 35 | 0.91
CS(=O)(=O)c1ccc(-n2ncc(C(=O)NC[C@@]3(C4CC4)NC(=O)NC3=O)n2)cc1 | 870 | 67
Cn1ccnc1C1(CNC(=O)c2cnn(-c3ccc(F)c(F)c3)n2)NC(=O)NC1=O (centres undefined) | 3 | 0.046
O=C1NC(=O)C(CNC(=O)c2nc(-c3ccccc3)no2)(CC2CC2)N1 (centres undefined) | 250 | 2.9
C[C@@H](NC(=O)c1cnn(-c2ccccc2)n1)C1(C2CC2)NC(=O)NC1=O (some centres undefined) | 710 | 50

SMILES | IC50 [1] [nM] | IC50 [2] [µM]
O=C1NC(=O)C(CNC(=O)c2cnn(-c3ccc(Cl)cc3)n2)(C2CCC2)N1 (centres undefined) | 10 | 0.98
O=C1NC(=O)[C@](CNC(=O)c2cnn(-c3cnsc3)n2)(C2CC2)N1 | 230 | 7.4
O=C1NC(=O)[C@](CNC(=O)c2cnn(-c3ccc(Cl)cc3Cl)n2)(C2CC2)N1 | 130 | 7.1
O=C1NC(=O)C(CNC(=O)c2cnn(-c3cccc(Cl)c3)n2)(C2CCC2)N1 (centres undefined) | 48 | 2.2
O=C1NC(=O)[C@](CNC(=O)c2cnn(-c3cccc(F)c3)n2)(C2CC2)N1 | 13 | 0.58
Cc1ccccc1-n1ncc(C(=O)NC[C@@]2(C3CC3)NC(=O)NC2=O)n1 | 980 | 12
O=C1NC(=O)[C@](CNC(=O)c2cnn(-c3ccc(F)c(Cl)c3)n2)(C2CC2)N1 | 5 | 0.25
O=C1NC(=O)[C@](CNC(=O)c2cnn(-c3ccccc3Cl)n2)(C2CC2)N1 | 470 | 10
CC(C)(C)CC1(CNC(=O)c2cnn(-c3ccccc3)n2)NC(=O)NC1=O (centres undefined) | 250 | 5
O=C1NC(=O)[C@](CNC(=O)c2cnn(-c3cc(F)c(F)c(F)c3)n2)(C2CC2)N1 | 25 | 1.1
O=C1NC(=O)C(CNC(=O)c2cnn(-c3ccc(Cl)c(F)c3)n2)(C2CCC2)N1 (centres undefined) | 6 | 0.975
O=C1NC(=O)C(CNC(=O)c2cnn(-c3cccc(F)c3)n2)(C2CCC2)N1 (centres undefined) | 8 | 2.2
O=C1NC(=O)[C@](CNC(=O)c2cnn(-c3ccccc3)n2)(C2CC2)N1 | 69 | 1.45
Cc1ccc(-n2ncc(C(=O)NC[C@@]3(C4CC4)NC(=O)NC3=O)n2)cc1 | 47 | 0.95
O=C1NC(=O)[C@](CNC(=O)c2cnn(-c3ccc(Br)cc3)n2)(C2CC2)N1 | 58 | 1.4
O=C1NC(=O)[C@](CNC(=O)c2cnn(-c3ccc(F)cn3)n2)(C2CC2)N1 | 140 | 4.75
O=C1NC(=O)C(CNC(=O)c2cnn(-c3cc(F)c(F)c(F)c3)n2)(C2CCC2)N1 (centres undefined) | 16 | 3.1
O=C1NC(=O)[C@](CNC(=O)c2cnn(-c3ncccc3F)n2)(C2CC2)N1 | 7 | 14
O=C1NC(=O)[C@](CNC(=O)c2cnn(-c3cccc(Cl)c3)n2)(C2CC2)N1 | 21 | 0.45
O=C1NC(=O)[C@](CNC(=O)c2cnn(-c3ccc(F)cc3F)n2)(C2CC2)N1 | 41 | 4.25
O=C1NC(=O)[C@](CNC(=O)c2cnn(-c3ccc(Cl)c(F)c3)n2)(C2CC2)N1 | 12 | 0.5
O=C1NC(=O)C(CNC(=O)c2cnn(-c3ccc(F)cc3F)n2)(C2CCC2)N1 (centres undefined) | 63 | 8.5
N#Cc1cccc(-n2ncc(C(=O)NC[C@@]3(C4CC4)NC(=O)NC3=O)n2)c1 | 32 | 0.6
O=C1NC(=O)C(CNC(=O)c2cnn(-c3ccc(F)c(F)c3)n2)(c2nccs2)N1 (centres undefined) | 7 | 0.31
Cn1ccnc1C1(CNC(=O)c2cnn(-c3ccc(Cl)c(F)c3)n2)NC(=O)NC1=O (centres undefined) | 2 | 0.041
O=C1NC(=O)[C@](CNC(=O)c2cnn(-c3ccc(Cl)cc3)n2)(C2CC2)N1 | 26 | 0.48

SMILES | IC50 [1] [nM] | IC50 [2] [µM]
O=C1NC(=O)[C@](CNC(=O)c2cnn(-c3ccc(OC(F)(F)F)cc3)n2)(C2CC2)N1 | 190 | > 50
C[C@H](NC(=O)c1cnn(-c2ccccc2)n1)C1(C2CC2)NC(=O)NC1=O (some centres undefined) | 980 | 25
O=C1NC(=O)[C@](CNC(=O)c2cnn(-c3cnccn3)n2)(C2CC2)N1 | 355 | 24
O=C1NC(=O)[C@](CNC(=O)c2cnn(-c3cccc(F)c3F)n2)(C2CC2)N1 | 74 | 3.1
N#Cc1cccc(-n2ncc(C(=O)NCC3(C4CCC4)NC(=O)NC3=O)n2)c1 (centres undefined) | 78 | 4
O=C1NC(=O)C(CNC(=O)c2cnn(-c3ccc(F)c(Cl)c3)n2)(C2CCC2)N1 (centres undefined) | 18 | 1.8
O=C1NC(=O)[C@](CNC(=O)c2cnc(-c3ccccc3)o2)(C2CC2)N1 | 550 | 11.3
CC(C)C1(CNC(=O)c2cnn(-c3ccc(F)c(Cl)c3)n2)NC(=O)NC1=O (centres undefined) | 190 | 12
O=C1NC(=O)[C@](CNC(=O)c2cnn(-c3ccc(F)c(F)c3)n2)(C2CC2)N1 | 7 | 0.175
O=C1NC(=O)C(CNC(=O)c2cnn(-c3ccccc3)n2)(c2ccncc2)N1 (racemic) | 20 | 2.8
O=C1NC(=O)C(CNC(=O)c2cnn(-c3ccccc3)n2)(c2ccccn2)N1 (racemic) | 26 | 4.8
CC(C)C1(CNC(=O)c2cnn(-c3ccccc3)n2)NC(=O)NC1=O (racemic) | 265 | 14.5
CC(C)(C)C1(CNC(=O)c2cnn(-c3ccc(C(F)(F)F)c(F)c3)n2)NC(=O)NC1=O (racemic) | 210 | 50
CC(C)(C)C1(CNC(=O)c2cnn(-c3ccc(C(F)(F)F)cc3)n2)NC(=O)NC1=O (racemic) | 620 | 50
CC(C)(C)C1(CNC(=O)c2cnn(-c3cccc(F)c3)n2)NC(=O)NC1=O (racemic) | 260 | 6.6
CC(C)(C)C1(CNC(=O)c2cnc(-c3ccccc3)o2)NC(=O)NC1=O (racemic) | 480 | 50
O=C1NC(=O)C(CNC(=O)c2cnn(-c3ccccc3)n2)(C2CCCOC2)N1 (racemic) | 62 | 8.5
O=C1NC(=O)C(CNC(=O)c2cnn(-c3ccc(F)cc3)n2)(c2ccccn2)N1 (racemic) | 10 | 3
O=C1NC(=O)C(CNC(=O)c2cnn(-c3ccc(F)cc3)n2)(c2cccnc2)N1 (racemic) | 30 | 4.5
O=C1NC(=O)C(CNC(=O)c2cnn(-c3ccc(F)cc3)n2)(c2ccncc2)N1 (racemic) | 140 | 2.9
O=C1NC(=O)C(CNC(=O)c2cnn(-c3ccccc3)n2)(C2CCOC2)N1 (racemic) | 170 | 22
Cn1ccnc1C1(CNC(=O)c2cnn(-c3ccccc3)n2)NC(=O)NC1=O (stereo in doubt) |  | 0.32
CC(C)C1(CNC(=O)c2cnn(-c3ccc(F)cc3F)n2)NC(=O)NC1=O (stereo in doubt) |  | 13
O=C1NC(=O)C(CNC(=O)c2cnn(-c3ccc(F)cc3)n2)(c2ccccn2)N1 (stereo in doubt; form 1) |  | 1.9
